Experimental data as given in patent US20260355328A1, “A complex comprising a cargo and a targeting moiety binding intelectin-1” (Stichting Radboud universitair medisch centrum, priority 2022, published 2026).

Assays:
[1] = biological target: T1, ITLN-1 (Mus musculus, UniProt O88310); assay: ITLN-1 protein expression in mGEnC; assay type: cell-based; details: 10 ng/ml TNFα, FIG. 2B
T1 construct: ITLN-1 siRNA versus control siRNA
Experimental: (§1) Conditionally immortalized mouse glomerular endothelial cells (mGEnC) were cultured as previously described (Rops et al. Kidney Int. 2004; 66 (6): 2193-201). Cells were incubated in their respective medium with 10% FCS containing fluorescein-labelled peptides at 5 μM for 20 minutes at 37 °C. In some cases, cells were activated for 16 hours with 10 ng/ml mouse TNFα (Sigma), or co-incubated with 100 μg/ml Alexa Fluor 633-labeled transferrin (Invitrogen Molecular Probes). Pre-treatment with ITLN-1 or control siPool siRNA (siTools Biotech) was performed according to the manufacturer's protocol. Subsequently, cells were detached with trypsin/EDTA and analysed by flow cytometry on a FACSCalibur Flow cytometer (BD Biosciences). For immunostaining, cells or 5-μm cryosections of mouse kidney were fixed for 10 minutes with 4% paraformaldehyde, and in the indicated cases permeabilized with 0.3% Triton X-100 in PBS. Subsequently, cells and cryosections were stained for 1 hour with anti-intelectin-1 (R&D Systems) or anti-LRP-1 (Abcam) antibodies, and after washing incubated for 1 hour with the appropriate Alexa Fluor-labelled secondary antibody (Invitrogen Molecular Probes). Cells and cryosections were analyzed by confocal laser-Scanning microscopy was performed using a TCS SP5 confocal microscope (Leica Microsystems).

[2] = tested on: mouse glomerular endothelial cells (mGEnC); assay: Uptake of fluorescein-labelled peptides by mGEnC (flow cytometry); assay type: cell-based; details: different concentrations, 20 minutes at 37 °C, FIG. 1A
Experimental: (§2) Conditionally immortalized mouse glomerular endothelial cells (mGEnC) were cultured as previously described (Rops et al. Kidney Int. 2004; 66 (6): 2193-201). HeLa cells were employed as a frequently used model cell line and were cultured in DMEM/F12 medium containing 10% fetal calf serum (FCS). For studying uptake, cells were incubated in their respective medium with 10% FCS containing fluorescein-labelled peptides at the indicated concentrations for 20 minutes at 37 °C. In some cases, cells were activated for 16 hours with 10 ng/ml mouse TNFα (Sigma), or co-incubated with Alexa Fluor 633-labeled transferrin (Invitrogen Molecular Probes). Subsequently, cells were washed with PBS and analysed using confocal laser-scanning microscopy on a TCS SP5 confocal microscope (Leica Microsystems), or detached by trypsin/EDTA and analysed on a FACSCalibur Flow cytometer (BD Biosciences) by measuring 20,000 cells.

[3] = tested on: HeLa cells; assay: Uptake of fluorescein-labelled peptides by HeLa cells (flow cytometry); assay type: cell-based, human; details: FIG. 1B
Experimental: as §2

[4] = tested on: heparan sulphate on mGEnC; assay: Peptide uptake by mGEnC after removal of heparan sulphate (heparinases); assay type: cell-based, mouse; details: 5 μM, FIG. 1D
Experimental: (D) Digestion of heparan sulphate from the cell surface has a limited effect on the uptake of lactoferrin-derived peptides (5 μM). Percentage of uptake for heparan sulphate-cleaved compared to undigested cells is shown.
as §2
In order to further substantiate that uptake of hLF occurred by a mechanism different of the one typically observed for CPPs, we addressed the role of heparan sulphate proteoglycans (HSPGs).

[5] = tested on: mGEnC treated with TNFα; assay: Uptake by mGEnC after activation with TNFα; assay type: cell-based; details: 10 ng/ml mouse TNFα 16 hours
Experimental: as §2, §1

[6] = tested on: mGEnC; assay: Intracellular localization / co-localization with transferrin in mGEnC (confocal microscopy); assay type: cell-based, mouse; details: FIG. 2C
Experimental: as §2
Conditionally immortalized mouse glomerular endothelial cells (mGEnC) were cultured as previously described (Rops et al. Kidney Int. 2004; 66 (6): 2193-201). […] Subsequently, cells were detached with trypsin/EDTA and analysed by flow cytometry on a FACSCalibur Flow cytometer (BD Biosciences). […] Cells and cryosections were analyzed by confocal laser-Scanning microscopy was performed using a TCS SP5 confocal microscope (Leica Microsystems).

[7] = biological target: T1, ITLN-1; assay: Uptake by mGEnC after downregulation of ITLN-1 with siRNA; assay type: cell-based; details: peptides at 5 μM, FIG. 2E
Experimental: as §1

[8] = tested on: mGEnC; assay: Uptake in multiple cell lines (Table 2): mGEnC; assay type: cell-based; details: fluorescein-labeled peptide, confocal microscopy, mGEnC (mouse)
Experimental: as §2
as §1, with “Subsequently, cells and cryosections were stained for 1 hour with anti-intelectin-1 (R&D Systems) or anti-LRP-1 (Abcam) antibodies, and after washing incubated for 1 hour with the appropriate Alexa Fluor-labelled secondary antibody (Invitrogen Molecular Probes).” left out

[9] = tested on: hGEnC; assay: Uptake in multiple cell lines (Table 2): hGEnC; assay type: cell-based; details: fluorescein-labeled peptide, confocal microscopy, hGEnC (human)
[10] = tested on: EOMA; assay: Uptake in multiple cell lines (Table 2): EOMA; assay type: cell-based; details: fluorescein-labeled peptide, confocal microscopy, EOMA (mouse)
[11] = tested on: HUVEC; assay: Uptake in multiple cell lines (Table 2): HUVEC; assay type: cell-based; details: fluorescein-labeled peptide, confocal microscopy, HUVEC (human)
[12] = tested on: Podocytes; assay: Uptake in multiple cell lines (Table 2): Podocytes; assay type: cell-based; details: fluorescein-labeled peptide, confocal microscopy, Podocytes (mouse)
Experimental: as §2
as §1, with “Subsequently, cells and cryosections were stained for 1 hour with anti-intelectin-1 (R&D Systems) or anti-LRP-1 (Abcam) antibodies, and after washing incubated for 1 hour with the appropriate Alexa Fluor-labelled secondary antibody (Invitrogen Molecular Probes).” left out

[13] = tested on: HeLa; assay: Uptake in multiple cell lines (Table 2): HeLa; assay type: cell-based; details: fluorescein-labeled peptide, confocal microscopy, HeLa (human)
Experimental: as §2
as §1, with “Subsequently, cells and cryosections were stained for 1 hour with anti-intelectin-1 (R&D Systems) or anti-LRP-1 (Abcam) antibodies, and after washing incubated for 1 hour with the appropriate Alexa Fluor-labelled secondary antibody (Invitrogen Molecular Probes).” left out

[14] = Biodistribution of 111In-DOTA-labelled hLF after intravenous injection in healthy mice; assay type: in vivo, C57BI/6 mice; details: i.v.
Experimental: Female and male 10-12-weeks-old C57BI/6 mice (Charles River) were injected via the tail vein with 50 μl of 200 μM 111 In-DOTA-labelled hLF peptide. Assuming a blood volume of 1.2 ml this would theoretically result in a concentration of ~8.5 μM in the circulation. Urine, blood and organs were collected 4 hours after injection, and radioactivity was measured in a gamma-counter. The percentage injected dose per gram of tissue (% ID/gram) was calculated for each tissue along with % of the absorbed dose.

[15] = Biodistribution of Cy5.5-hLF in LPS-induced inflammation mouse model; assay type: in vivo, C57BI/6 mice
Experimental: At the start, 8- to 10-week-old C57BI/6 mice (Charles River) received an intraperitoneal injection with either 100 μl of 2 mg/kg LPS in 5% glucose solution, or only 5% glucose solution. After 24 hours, mice were injected with 50 μl of 200 μM Cy5.5-labelled peptide. Assuming a blood volume of 1.2 ml this would theoretically result in a concentration of ~8.5 μM in the circulation. After 4 hours, organs were perfused with phosphate buffer, followed by 4% PFA. Organs were removed and peptide distribution was analysed using the In Vivo Imaging System (IVIS; Perkin Elmer). Organs were then fixed by overnight incubation in 4% PFA, followed by overnight incubation in 30% sucrose. Subsequently, organs were frozen for analysis by confocal laser-Scanning microscopy using a TCS SP5 confocal microscope (Leica Microsystems). Glomerular and tubular regions were selected in microscopical pictures from which the mean fluorescence intensity was determined by ImageJ software.

[16] = Proteolytic breakdown and serum protein binding of the peptides; assay type: in vitro ADME
[17] = tested on: heparan sulphate proteoglycans (HSPGs); details: HeLa cells, literature; cited from earlier work
[18] = Biodistribution of full-length lactoferrin, lactoferricin and hLF-6 in LPS-challenged mice (IVIS); assay type: in vivo; details: fluorescent label, i.v., 2 h
Experimental: Lactoferrin and lactoferricin are cloned in an expression plasmid containing the C-terminal Sortase-sequence protein-LPETG-HHHHHH. LPETGHHHHHH is SEQ ID NO: 98. Next, the protein is expressed overnight in E. coli and purified from sonicated bacterial cell lysates by Ni-NTA beads using 400 mM imidazole to elute the proteins. After overnight dialysis, full-length lactoferrin and hLF-6 are labelled by means of a Sortase exchange reaction on the C-terminus with a fluorescent dye (Alexa647 or Cy5.5) for 2 h at 4 °C using a fluorescently labelled donor peptide (formula:biotin-GSSG-LPETG-label or biotin-GSSG-LPETG-PEG40k-label) as substrate GSSGLPETG is SEQ ID NO: 99. Excess donor peptide is removed by means of streptavidin binding of the biotin tag on the N-terminus of the donor peptide. Next, the purified labelled protein/peptide is injected into LPS-challenged mice via intravenous injection in the tail vein. Mice are sacrificed after 2 h, and organs harvested for imaging by IVIS. Biodistribution is quantified for each organ, and relative distribution is shown.

[19] = tested on: proteoglycans on endothelial and epithelial cells; details: literature; cited from earlier work

T1 sequence (O88310 19-298): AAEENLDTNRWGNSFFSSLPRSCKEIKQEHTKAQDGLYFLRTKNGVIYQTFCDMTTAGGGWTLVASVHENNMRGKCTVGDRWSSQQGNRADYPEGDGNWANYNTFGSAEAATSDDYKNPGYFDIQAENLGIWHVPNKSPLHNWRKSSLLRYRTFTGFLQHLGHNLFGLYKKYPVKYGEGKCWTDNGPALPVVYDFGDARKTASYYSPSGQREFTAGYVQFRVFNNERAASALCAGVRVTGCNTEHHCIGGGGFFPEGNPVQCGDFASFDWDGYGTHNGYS

Substance: TNFα
- ITLN-1 expression after activation [1]: augmented ITLN-1 expression

Substance: KCFQWQRNMRKVRGPPVSCIKR [hLF, lactoferrin-derived 22-amino acid peptide]
- uptake in mGEnC [2]: much more efficient dose-dependent uptake
- uptake in HeLa cells [3]: show uptake
- decrease in uptake after removal of heparan sulphate [4]: ~ 20%
- effect of TNFα treatment on uptake [5]: increased uptake
- increase of uptake after TNFα treatment ([5]; 5 μM, FIG. 1E): 50-100%
- co-localization with fluorescently-labelled transferrin [6]: co-localized completely
- uptake after ITLN-1 siRNA compared to control siRNA [7]: reduced uptake
- Uptake (Table 2) [8]: High
- Uptake (Table 2) [9]: High
- Uptake (Table 2) [10]: High
- Uptake (Table 2) [11]: High
- Uptake (Table 2) [12]: High
- Uptake (Table 2) [13]: High
- biodistribution (main organ) ([14]; 111In-DOTA-labelled, 4 hours, FIG. 3A): predominantly located in the kidney
- concentration in the blood after 4 hours [14]: < 1%
- absorbed dose in kidney and liver combined of total dose in all the organs ([14]; 4 hours): more than 90%
- distribution to other organs including intestines, skin and heart, fold lower ([14]; 4 hours): more than 20 fold
- distribution to the liver, fold lower than kidney ([14]; 4 hours): approximately 2 fold
- kidney targeting, female versus male mice ([14]; 4 hours): No significant differences
- peptide concentration in spleen and lungs, fold lower than kidney ([14]; 4 hours): 5-10 fold
- signal in spleen, heart, eyes, brain and lymph nodes ([15]; IVIS, LPS-treated and non-treated mice): virtually undetectable
- tubular uptake of non-conjugated / free peptide ([15]; i.v. injection in mice): tubular uptake
- binding to serum proteins as reason for preferential uptake by mGEnC [16]: not due to a difference in proteolytic breakdown of the peptides before uptake, or a difference in the binding to serum proteins
- proteolytic breakdown as reason for preferential uptake by mGEnC ([16]; before uptake): not due to a difference in proteolytic breakdown
- dependence of uptake on HSPG [17]: depends on the presence of HSPG

Substance: lactoferricin
- bio-distribution [18]: accumulation predominantly in liver and spleen and less in kidney, brain and intestine
- binding to proteoglycans [19]: bind to proteoglycans on endothelial and epithelial cells
